Several values for one entry are separate records, joined by “and”; a condition that tells them apart may be missing. Equal entries are not always repeated. Entries after “also recorded” stand apart in the source; their conditions may differ. Values belong to the molecule of their own block, whether it stands above or below them.
Tests used:
[1] = system: Male SD (Sprague-Dawley) rats; assay: APAP-induced hepatotoxicity in rats: histological liver tissue sections (Total HAI-score); settings: for liver tissue sections, hepatocyte morphology (in words): liver protection groups + APAP 1000 mg/kg, H&E stain 200×, FIG. 2
[2] = system: Male SD (Sprague-Dawley) rats; assay: APAP-induced hepatotoxicity in rats: plasma AST and ALT activity; type: in vivo, rat; settings: for improvement of APAP liver damage (AST, ALT, GSP and Total HAI-score, in words): combined with APAP 1000 mg/kg, versus APAP hepatotoxicity group
Method: After completion of the treatments, rats were sacrificed under ether anesthesia, and blood was collected from the tail artery of the rats and placed in a test tube containing EDTA. The plasma was centrifuged at 13,000 at 4° C. for 15 minutes and the isolated plasma was transferred to Eppendorf tubes in aliquots and stored at −80° C.
Liver damage is quantified by measuring plasma AST and ALT activity. AST and ALT are common indicators of hepatotoxicity and are measured by using the Synchron LXi 725 system (Beckman Instruments, U.S.).

[3] = biological target: Cytochrome P450 2E1 (CYP2E1) (Rattus norvegicus, UniProt P05182); assay: In-vitro screening of CYP2E1 inhibitors in rat liver microsomes (chlorzoxazone 6-hydroxylation)
From the text: (§1) This example is preparation of microsomes from rat and human liver for in vitro screening of CYP2E1 inhibitors. A total of 55 safe and edible excipients are included in the screening for cytochrome P450 2E1 (CYP2E1) inhibitors. […] After addition of the test sample, the amount of CYP2E1 metabolite standard 6-OH—CZX (6-Hydroxy-Chlorzoxazone) is used for calculation of the CYP 2E1 inhibition ratio of the test sample by using the amount of 6-OH—CZX of the control group as the baseline.
(§2) Transfer to and pre-incubate the reaction mixture in a water bath at 37° C. for 1 minute. […] Incubate the sample for 1 minute and add internal standard (5 ug/mL 4-hydroxy-tobutamide).

[4] = biological target: Cytochrome P450 2E1 (CYP2E1) (Homo sapiens, UniProt P05181); assay: In-vitro screening of CYP2E1 inhibitors in human liver microsomes (chlorzoxazone 6-hydroxylation)
From the text: as §1, §2

[5] = system: Male SD (Sprague-Dawley) rats; assay: APAP-induced hepatotoxicity in rats: galactose single point (GSP) residual liver function test; type: in vivo, rat; settings: excipient 1.67 mg/kg + APAP 1000 mg/kg, single oral dose
Method: After the study was completed, all rats were subjected to GSP test. Rats were i.v. injected with 0.4 g/ml BW galactose solution 0.5 g/kg within 30 seconds and one blood sample was collected at 5, 10, 15, 30, 45 and 60 minutes post injection from the tail vein. Colorimetric galactose dehydrogenase is used to quantify the concentration of galactose and the test concentration ranges from 50 to 1,000 μg/ml. The within-day variation of each concentration is calculated using standard deviation and coefficient of variation (CV) and the maximum allowable coefficient of variation is 10% CV, whereas day-to-day variation is examined by comparing the slope and intercept of calibration curves. The GSP is the blood galactose concentration obtained 60 seconds after stopping the 30-second injection.

[6] = APAP alone, single oral dose 1000 mg/kg, plasma, mean ± SD, 1000 mg/kg
[7] = rat liver microsomes, test concentration 16.5 μM
[8] = rat liver microsomes, test concentration 33 μM
[9] = rat liver microsomes, test concentration 66 μM
[10] = rat, microsomes, 30 min, 0.024 %, pH 7.4
[11] = rat, microsomes, 30 min, 0.084 % (w/v), pH 7.4
[12] = rat, microsomes, 30 min, 0.167 % (w/v), pH 7.4
[13] = human liver microsomes, test concentration 16.5 μM
[14] = human liver microsomes, test concentration 33 μM
[15] = human liver microsomes, test concentration 66 μM
[16] = excipient 1.67 mg/kg + APAP 1000 mg/kg, single oral dose
[17] = rat, microsomes, 30 min, 16.5 μM, pH 7.4
[18] = rat, microsomes, 30 min, 33 μM, pH 7.4
[19] = rat, microsomes, 30 min, 66 μM, pH 7.4
[20] = human, microsomes, 30 min, 16.5 μM, pH 7.4
[21] = human, microsomes, 30 min, 33 μM, pH 7.4
[22] = human, microsomes, 30 min, 66 μM, pH 7.4

Cytochrome P450 2E1 (CYP2E1) (Rattus norvegicus, UniProt P05182), sequence (P05182 whole entry): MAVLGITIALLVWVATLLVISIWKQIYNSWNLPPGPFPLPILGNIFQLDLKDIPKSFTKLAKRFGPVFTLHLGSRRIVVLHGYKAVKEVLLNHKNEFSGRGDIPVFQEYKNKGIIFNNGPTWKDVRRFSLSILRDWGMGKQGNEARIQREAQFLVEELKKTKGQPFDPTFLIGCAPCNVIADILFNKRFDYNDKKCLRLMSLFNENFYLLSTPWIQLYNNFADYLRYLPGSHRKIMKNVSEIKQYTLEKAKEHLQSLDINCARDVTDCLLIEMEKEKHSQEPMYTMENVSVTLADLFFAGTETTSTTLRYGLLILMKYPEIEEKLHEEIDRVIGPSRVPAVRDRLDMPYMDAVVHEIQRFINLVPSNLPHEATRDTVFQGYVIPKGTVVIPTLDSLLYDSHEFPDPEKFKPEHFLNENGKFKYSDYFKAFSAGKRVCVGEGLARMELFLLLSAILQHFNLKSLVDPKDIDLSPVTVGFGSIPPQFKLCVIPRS
Cytochrome P450 2E1 (CYP2E1) (Homo sapiens, UniProt P05181), sequence (P05181 whole entry): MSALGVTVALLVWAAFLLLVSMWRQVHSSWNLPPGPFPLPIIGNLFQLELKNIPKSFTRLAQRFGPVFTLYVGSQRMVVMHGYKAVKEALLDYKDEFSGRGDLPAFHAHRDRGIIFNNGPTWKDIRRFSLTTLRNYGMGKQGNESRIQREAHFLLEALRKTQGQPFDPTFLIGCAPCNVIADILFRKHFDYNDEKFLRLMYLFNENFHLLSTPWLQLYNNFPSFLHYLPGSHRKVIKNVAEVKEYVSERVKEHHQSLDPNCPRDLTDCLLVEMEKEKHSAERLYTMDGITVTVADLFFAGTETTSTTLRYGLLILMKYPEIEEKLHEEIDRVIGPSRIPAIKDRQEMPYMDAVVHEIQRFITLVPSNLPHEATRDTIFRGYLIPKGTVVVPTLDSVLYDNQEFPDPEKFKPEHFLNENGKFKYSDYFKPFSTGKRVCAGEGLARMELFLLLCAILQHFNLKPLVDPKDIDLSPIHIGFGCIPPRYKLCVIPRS

Molecule: CC(=O)Nc1ccc(O)cc1 [APAP, N-acetyl-para-aminophenol, reference compound]
Total HAI-score ([1]; APAP alone, single oral dose 1000 mg/kg, mean ± SD): 4.9 ± 1.8
ALT [2, 6]: 368±71 IU/L
AST [2, 6]: 499±112 IU/L

CYP 2E1 inhibition ratio [3, 7]: 3.9 ± 2.7%
CYP 2E1 inhibition ratio [3, 8]: 7.1 ± 2.3%
CYP 2E1 inhibition ratio [3, 9]: 14.5 ± 1.9%
Molecule: CC1=CC(=O)NS(=O)(=O)O1 [Acesulfame potassium]

CYP 2E1 inhibition ratio [3, 10]: 8.2 ± 2.0%
CYP 2E1 inhibition ratio [3, 11]: 6.7 ± 1.0%
CYP 2E1 inhibition ratio [3, 12]: −10.3 ± 6.3%
Molecule: OCc1ccccc1 [Benzyl alcohol]

Molecule: O=C(O)CC(O)(CC(=O)O)C(=O)O [Citric acid]
CYP 2E1 inhibition ratio [3, 7]: 7.5 ± 2.3%
CYP 2E1 inhibition ratio [3, 8]: 12.4 ± 2.2%
CYP 2E1 inhibition ratio [3, 9]: 27.6 ± 3.6%
CYP 2E1 inhibition ratio [4, 13]: 9.9 ± 3.1%
CYP 2E1 inhibition ratio [4, 14]: 15.5 ± 1.5%
CYP 2E1 inhibition ratio [4, 15]: 20.5 ± 1.8%

CYP 2E1 inhibition ratio ([3]; rat liver microsomes, test concentration 10 μM): 8.6 ± 1.1%
CYP 2E1 inhibition ratio ([3]; rat liver microsomes, test concentration 50 μM): 50.4 ± 1.1%
CYP 2E1 inhibition ratio ([3]; rat liver microsomes, test concentration 100 μM): 89.2% and 89.2 ± 2.2%
CYP 2E1 inhibition ratio ([4]; human, microsomes, 30 min, 10 μM, pH 7.4): 7.3 ± 1.0%
CYP 2E1 inhibition ratio ([4]; human, microsomes, 30 min, 50 μM, pH 7.4): 49.8 ± 2.9%
CYP 2E1 inhibition ratio ([4]; human, microsomes, 30 min, 100 μM, pH 7.4): 89.6 ± 0.9%
Molecule: CCN(CC)C(=S)S [DDTC, Diethyldithiocarbamic acid, reference compound]

Molecule: O.O.O=P([O-])([O-])O.[Ca+2] [Dicalcium phosphate dihydrate]
Total HAI-score [1, 16]: 3.1 ± 1.1
liver tissue sections, hepatocyte morphology (in words) ([1]; single oral dose): except for the dicalcium phosphate group
CYP 2E1 inhibition ratio [3, 7]: 55.0 ± 4.6%
CYP 2E1 inhibition ratio [3, 8]: 62.0 ± 2.6%
CYP 2E1 inhibition ratio [3, 9]: 76.7 ± 0.8%
improvement of APAP liver damage (AST, ALT, GSP and Total HAI-score, in words) [2]: not as expected
ALT [2, 16]: 196 ± 65 IU/L
AST [2, 16]: 315 ± 42 IU/L
CYP 2E1 inhibition ratio [4, 13]: 31.2 ± 2.9%
CYP 2E1 inhibition ratio [4, 14]: 56.8 ± 2.2%
CYP 2E1 inhibition ratio [4, 15]: 60.1 ± 0.3%
GSP ([5]; phosphate dihydrate): 444 ± 60 mg/L

CYP 2E1 inhibition ratio [3, 17]: 3.1 ± 0.2%
CYP 2E1 inhibition ratio [3, 18]: 3.1 ± 2.5%
CYP 2E1 inhibition ratio [3, 19]: 8.2 ± 2.0%
Molecule: CCCCCCCCCCCCCCCCCCCCCC(=O)OCC(O)CO (stereo not drawn) [Glyceryl behenate]

CYP 2E1 inhibition ratio [3, 17]: 3.9 ± 2.3%
CYP 2E1 inhibition ratio [3, 18]: 7.8 ± 2.2%
CYP 2E1 inhibition ratio [3, 19]: 8.7 ± 3.8%
Molecule: O.OC[C@H]1O[C@@H](O[C@H]2[C@H](O)[C@@H](O)C(O)O[C@@H]2CO)[C@H](O)[C@@H](O)[C@H]1O (stereo partly drawn) [Lactose monohydrate]

Molecule: OC[C@@H](O)[C@@H](O)[C@H](O)[C@H](O)CO [Mannitol]
Total HAI-score [1, 16]: 0.8 ± 0.3
liver tissue sections, hepatocyte morphology (in words) ([1]; single oral dose): more intact around the central vein and have a apparent nucleus with less vacuolization; also recorded: hepatocytes are relatively intact with visible nucleus and less vacuolization
CYP 2E1 inhibition ratio [3, 17]: 40.9 ± 2.8%
CYP 2E1 inhibition ratio [3, 18]: 51.0 ± 2.7%
CYP 2E1 inhibition ratio [3, 19]: 60.6 ± 3.3%
improvement of APAP liver damage (AST, ALT, GSP and Total HAI-score, in words) [2]: significant decrease
ALT [2, 16]: 79 ± 34 IU/L
AST [2, 16]: 201 ± 30 IU/L
CYP 2E1 inhibition ratio [4, 20]: 44.8 ± 1.8%
CYP 2E1 inhibition ratio [4, 21]: 51.2 ± 2.1%
CYP 2E1 inhibition ratio [4, 22]: 54.5 ± 4.2%
GSP [5]: 253 ± 29 mg/L

CYP 2E1 inhibition ratio [3, 7]: 7.2 ± 2.9%
CYP 2E1 inhibition ratio [3, 8]: 15.3 ± 7.9%
CYP 2E1 inhibition ratio [3, 9]: 36.4 ± 0.3%
CYP 2E1 inhibition ratio [4, 13]: 10.5 ± 0.4%
CYP 2E1 inhibition ratio [4, 14]: 20.8 ± 2.1%
CYP 2E1 inhibition ratio [4, 15]: 30.8 ± 0.3%
Molecule: CC1CCC(C(C)C)C(O)C1 (stereo not drawn) [Menthol]
Total HAI-score [1, 16]: 11 ± 1.2
liver tissue sections, hepatocyte morphology (in words) ([1]; single oral dose): more intact around the central vein and have a apparent nucleus with less vacuolization; also recorded: hepatocytes are relatively intact with visible nucleus and less vacuolization
improvement of APAP liver damage (AST, ALT, GSP and Total HAI-score, in words) [2]: significant decrease
ALT [2, 16]: 109 ± 23 IU/L
AST [2, 16]: 187 ± 21 IU/L
GSP [5]: 289 ± 20 mg/L

CYP 2E1 inhibition ratio [3, 17]: 4.6 ± 3.2%
CYP 2E1 inhibition ratio [3, 18]: −14.6 ± 4.1%
CYP 2E1 inhibition ratio [3, 19]: −21.5 ± 2.0%
Molecule: COC(=O)c1ccc(O)cc1 [Methylparaben]

CYP 2E1 inhibition ratio [3, 17]: −4.1 ± 1.2%
CYP 2E1 inhibition ratio [3, 18]: −17.2 ± 2.4%
CYP 2E1 inhibition ratio [3, 19]: −27.3 ± 3.7%
Molecule: CCCOC(=O)c1ccc(O)cc1 [Propylparaben]

CYP 2E1 inhibition ratio [3, 7]: 35.3 ± 2.0%
CYP 2E1 inhibition ratio [3, 8]: 59.6 ± 3.3%
CYP 2E1 inhibition ratio [3, 9]: 67.4 ± 3.9%
CYP 2E1 inhibition ratio [4, 13]: 29.4 ± 2.7%
CYP 2E1 inhibition ratio [4, 14]: 51.2 ± 0.9%
CYP 2E1 inhibition ratio [4, 15]: 78.5 ± 2.1%
Molecule: O=C1NS(=O)(=O)c2ccccc21 [Saccharin]

Molecule: O=C([O-])c1ccccc1.[Na+] [Sodium benzoate]
CYP 2E1 inhibition ratio [3, 7]: 7.1 ± 2.0%
CYP 2E1 inhibition ratio [3, 8]: 7.8 ± 4.1%
CYP 2E1 inhibition ratio [3, 9]: 15.8 ± 0.9%

Molecule: CCCCCCCCCCCCOS(=O)(=O)[O-].[Na+] [Sodium lauryl sulfate]
CYP 2E1 inhibition ratio [3, 7]: 4.6 ± 1.1%
CYP 2E1 inhibition ratio [3, 8]: 6.4 ± 0.9%
CYP 2E1 inhibition ratio [3, 9]: 4.8 ± 1.2%

CYP 2E1 inhibition ratio [3, 7]: 12.1 ± 5.7%
CYP 2E1 inhibition ratio [3, 8]: 13.2 ± 4.4%
CYP 2E1 inhibition ratio [3, 9]: 19.0 ± 5.6%
CYP 2E1 inhibition ratio [4, 13]: 8.4 ± 1.6%
CYP 2E1 inhibition ratio [4, 14]: 10.9 ± 2.7%
CYP 2E1 inhibition ratio [4, 15]: 14.8 ± 0.1%
Molecule: C/C=C/C=C/C(=O)O [Sorbic acid]

CYP 2E1 inhibition ratio [3, 10]: 6.4 ± 0.5%
CYP 2E1 inhibition ratio [3, 11]: 5.6 ± 0.5%
CYP 2E1 inhibition ratio [3, 12]: 16.1 ± 0.7%
Molecule: OC[C@@H](O)[C@@H](O)[C@H](O)[C@@H](O)CO [Sorbitol]

CYP 2E1 inhibition ratio [3, 17]: 41.1 ± 2.7%
CYP 2E1 inhibition ratio [3, 18]: 46.8 ± 0.8%
CYP 2E1 inhibition ratio [3, 19]: 54.0 ± 4.2%
CYP 2E1 inhibition ratio [4, 20]: 37.1 ± 2.8%
CYP 2E1 inhibition ratio [4, 21]: 45.8 ± 4.0%
CYP 2E1 inhibition ratio [4, 22]: 55.8 ± 2.0%
Molecule: OC[C@H]1O[C@H](O[C@]2(CCl)O[C@H](CCl)[C@@H](O)[C@@H]2O)[C@H](O)[C@@H](O)[C@H]1Cl [Sucralose]
Total HAI-score [1, 16]: 0.6 ± 0.4
liver tissue sections, hepatocyte morphology (in words) ([1]; single oral dose): most similar to the liver tissue sections of normal rats; also recorded: hepatocytes are relatively intact with visible nucleus and less vacuolization
improvement of APAP liver damage (AST, ALT, GSP and Total HAI-score, in words) [2]: significant decrease
ALT [2, 16]: 83 ± 23 IU/L
AST [2, 16]: 199 ± 24 IU/L
GSP [5]: 218 ± 31 mg/L

Molecule: Magnesium stearate
CYP 2E1 inhibition ratio [3, 7]: 2.0 ± 1.0%
CYP 2E1 inhibition ratio [3, 8]: 3.0 ± 0.7%
CYP 2E1 inhibition ratio [3, 9]: 5.0 ± 1.6%

Source: patent US10420737B2, “Hepatotoxicity-free pharmaceutical composition containing acetaminophen drugs” (NATIONAL DEFENSE EDUCATION AND RESEARCH FOUNDATION, priority 2013, dated 2019)
